Measurements published in article PMC11314561, “Design and Synthesis of Novel Aminoindazole-pyrrolo[2,3-b]pyridine Inhibitors of IKKα That Selectively Perturb Cellular Non-Canonical NF-κB Signalling” (Molecules, 2024).

Assays:
Experiment in all cases: kinase panel
Type in all cases: biochemical
[1] = target: CaMKIIβ(h) (Homo sapiens, UniProt Q13554)
Excerpt: (§1) We profiled three compounds from the series across the kinome (Table S1).
(§2) Ta b l e S1. The % inhibition of compounds 4, 5r [SU1261], and 6g [SU1349] against a
(§3) panel of kinase enzymes. We proϐiled three compounds from the series across 231
(§4) kinases. For SU1349, given its structural similarity with SU1261, we selected 98 from the
(§5) Tested kinase % inhibiƟon

[2] = target: PKBα(h) (Homo sapiens, UniProt P31749)
Excerpt: as §1, §2, §3, §4, §5

[3] = target: MSK1(h) (Homo sapiens, UniProt O75582)
Excerpt: as §1, §2, §3, §4, §5

[4] = target: T1, SAPK4(h) (Homo sapiens, UniProt O15264)
T1 sequence (O15264 1-365): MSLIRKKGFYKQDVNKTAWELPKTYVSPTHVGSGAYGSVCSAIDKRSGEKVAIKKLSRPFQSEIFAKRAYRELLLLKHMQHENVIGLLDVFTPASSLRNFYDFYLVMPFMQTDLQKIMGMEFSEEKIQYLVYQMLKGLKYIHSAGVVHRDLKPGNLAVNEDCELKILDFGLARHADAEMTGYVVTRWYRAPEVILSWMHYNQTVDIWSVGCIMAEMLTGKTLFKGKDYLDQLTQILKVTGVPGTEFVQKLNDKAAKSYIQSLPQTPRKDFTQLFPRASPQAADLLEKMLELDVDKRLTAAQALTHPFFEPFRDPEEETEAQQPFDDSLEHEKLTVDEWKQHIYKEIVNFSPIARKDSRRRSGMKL
Excerpt: as §1, §2, §3, §4, §5

[5] = target: IR(h) (Homo sapiens, UniProt P06213)
Excerpt: as §1, §2, §3, §4, §5

[6] = target: CK2(h) (Homo sapiens, UniProt P68400)
Excerpt: as §1, §2, §3, §4, §5

[7] = target: T2, ARK5(h) (Homo sapiens, UniProt O60285)
T2 sequence (O60285 1-661): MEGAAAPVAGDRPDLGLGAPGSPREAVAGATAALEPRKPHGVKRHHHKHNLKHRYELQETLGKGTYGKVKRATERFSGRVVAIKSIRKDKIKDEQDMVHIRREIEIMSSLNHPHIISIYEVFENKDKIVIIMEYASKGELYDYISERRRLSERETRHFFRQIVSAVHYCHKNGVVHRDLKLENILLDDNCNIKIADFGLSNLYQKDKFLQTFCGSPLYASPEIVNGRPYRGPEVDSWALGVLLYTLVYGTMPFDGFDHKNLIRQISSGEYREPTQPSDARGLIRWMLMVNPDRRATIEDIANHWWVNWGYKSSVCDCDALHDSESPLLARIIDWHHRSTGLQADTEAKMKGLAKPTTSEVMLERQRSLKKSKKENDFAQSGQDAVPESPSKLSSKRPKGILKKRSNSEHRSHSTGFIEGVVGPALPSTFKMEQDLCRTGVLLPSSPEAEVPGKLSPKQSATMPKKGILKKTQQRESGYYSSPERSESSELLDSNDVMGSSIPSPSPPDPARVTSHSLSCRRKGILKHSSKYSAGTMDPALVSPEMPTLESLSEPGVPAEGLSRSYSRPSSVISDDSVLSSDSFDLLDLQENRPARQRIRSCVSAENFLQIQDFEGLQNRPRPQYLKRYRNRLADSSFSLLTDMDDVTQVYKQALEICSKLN
Excerpt: as §1, §2, §3, §4, §5

[8] = target: T3, GCK(h) (Homo sapiens, UniProt Q12851)
T3 sequence (Q12851 1-820): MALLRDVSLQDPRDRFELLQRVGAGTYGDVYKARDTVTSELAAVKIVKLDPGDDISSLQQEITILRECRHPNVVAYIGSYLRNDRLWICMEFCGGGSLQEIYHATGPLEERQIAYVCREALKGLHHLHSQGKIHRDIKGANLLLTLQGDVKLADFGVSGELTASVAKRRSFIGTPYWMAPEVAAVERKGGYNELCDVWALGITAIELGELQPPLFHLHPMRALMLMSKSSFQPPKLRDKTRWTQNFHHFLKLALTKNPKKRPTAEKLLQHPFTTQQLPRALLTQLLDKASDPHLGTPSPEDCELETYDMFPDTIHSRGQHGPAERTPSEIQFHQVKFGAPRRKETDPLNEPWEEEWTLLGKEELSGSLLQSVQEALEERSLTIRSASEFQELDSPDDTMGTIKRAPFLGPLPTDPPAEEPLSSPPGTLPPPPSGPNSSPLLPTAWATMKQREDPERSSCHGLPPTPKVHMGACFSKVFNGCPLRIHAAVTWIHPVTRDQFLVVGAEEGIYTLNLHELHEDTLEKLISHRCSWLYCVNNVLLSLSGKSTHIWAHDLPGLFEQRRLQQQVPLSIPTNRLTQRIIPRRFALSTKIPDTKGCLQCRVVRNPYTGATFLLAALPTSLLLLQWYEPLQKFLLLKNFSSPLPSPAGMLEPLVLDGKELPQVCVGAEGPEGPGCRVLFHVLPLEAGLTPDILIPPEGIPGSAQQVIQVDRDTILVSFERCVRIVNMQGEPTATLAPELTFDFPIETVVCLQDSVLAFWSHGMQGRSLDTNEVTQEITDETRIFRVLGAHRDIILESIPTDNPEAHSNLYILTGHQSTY
Excerpt: as §1, §2, §3, §4, §5

[9] = target: Pim-1(h) (Homo sapiens, UniProt P11309)
Excerpt: as §1, §2, §3, §4, §5

[10] = target: EGFR(h) (Homo sapiens, UniProt P00533)
Excerpt: as §1, §2, §3, §4, §5

[11] = target: CDK3/cyclinE(h) (Homo sapiens, UniProt Q00526)
Excerpt: as §1, §2, §3, §4, §5

[12] = target: Fms(h) (Homo sapiens, UniProt P07333)
Excerpt: as §1, §2, §3, §4, §5

[13] = target: PKCη(h) (Homo sapiens, UniProt P24723)
Excerpt: as §1, §2, §3, §4, §5

Pim-1(h), sequence (P11309 whole entry): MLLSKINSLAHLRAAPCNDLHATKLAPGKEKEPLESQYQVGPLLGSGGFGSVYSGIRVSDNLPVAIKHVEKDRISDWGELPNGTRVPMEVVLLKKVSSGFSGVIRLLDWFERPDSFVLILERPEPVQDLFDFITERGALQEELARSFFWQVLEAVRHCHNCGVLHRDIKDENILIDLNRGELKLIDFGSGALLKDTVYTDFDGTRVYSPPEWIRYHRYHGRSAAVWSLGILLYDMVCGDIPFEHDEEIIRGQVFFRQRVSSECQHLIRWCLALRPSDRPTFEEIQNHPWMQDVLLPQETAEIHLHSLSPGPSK
CaMKIIβ(h), sequence (Q13554 whole entry): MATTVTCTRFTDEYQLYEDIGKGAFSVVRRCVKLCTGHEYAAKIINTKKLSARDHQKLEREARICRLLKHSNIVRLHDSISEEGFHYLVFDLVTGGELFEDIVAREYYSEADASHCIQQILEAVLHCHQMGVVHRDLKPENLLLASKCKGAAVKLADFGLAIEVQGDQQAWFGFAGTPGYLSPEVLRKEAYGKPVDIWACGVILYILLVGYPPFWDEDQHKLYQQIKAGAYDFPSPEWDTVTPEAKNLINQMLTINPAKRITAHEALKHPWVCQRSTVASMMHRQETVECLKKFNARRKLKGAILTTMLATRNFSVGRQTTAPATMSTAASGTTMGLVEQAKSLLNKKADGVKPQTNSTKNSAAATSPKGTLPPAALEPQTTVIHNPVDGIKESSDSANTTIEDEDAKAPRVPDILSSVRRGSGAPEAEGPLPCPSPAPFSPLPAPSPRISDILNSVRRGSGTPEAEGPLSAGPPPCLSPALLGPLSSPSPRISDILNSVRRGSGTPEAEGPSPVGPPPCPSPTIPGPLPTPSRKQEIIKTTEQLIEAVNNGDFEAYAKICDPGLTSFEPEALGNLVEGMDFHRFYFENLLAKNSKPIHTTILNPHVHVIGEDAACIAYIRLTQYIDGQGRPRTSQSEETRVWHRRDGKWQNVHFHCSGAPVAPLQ
MSK1(h), sequence (O75582 whole entry): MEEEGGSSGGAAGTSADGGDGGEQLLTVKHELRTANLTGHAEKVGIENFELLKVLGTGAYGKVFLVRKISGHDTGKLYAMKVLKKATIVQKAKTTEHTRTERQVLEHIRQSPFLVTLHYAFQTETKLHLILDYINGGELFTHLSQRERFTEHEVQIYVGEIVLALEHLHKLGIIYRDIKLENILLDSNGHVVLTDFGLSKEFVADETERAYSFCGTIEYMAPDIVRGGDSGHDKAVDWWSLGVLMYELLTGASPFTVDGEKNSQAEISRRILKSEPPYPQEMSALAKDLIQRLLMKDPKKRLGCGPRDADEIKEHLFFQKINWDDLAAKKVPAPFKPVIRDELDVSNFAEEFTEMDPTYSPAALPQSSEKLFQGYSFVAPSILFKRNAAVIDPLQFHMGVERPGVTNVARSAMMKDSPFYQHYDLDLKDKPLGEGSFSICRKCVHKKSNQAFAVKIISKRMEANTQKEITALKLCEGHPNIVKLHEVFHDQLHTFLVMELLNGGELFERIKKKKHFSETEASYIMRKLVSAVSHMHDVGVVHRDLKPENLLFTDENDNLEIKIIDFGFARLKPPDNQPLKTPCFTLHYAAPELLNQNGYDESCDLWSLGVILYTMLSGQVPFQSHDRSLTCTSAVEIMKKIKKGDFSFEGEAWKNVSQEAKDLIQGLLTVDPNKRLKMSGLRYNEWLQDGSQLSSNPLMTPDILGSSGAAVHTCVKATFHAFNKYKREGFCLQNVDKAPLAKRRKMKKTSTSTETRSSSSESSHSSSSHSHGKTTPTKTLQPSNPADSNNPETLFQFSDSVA
CDK3/cyclinE(h), sequence (Q00526 whole entry): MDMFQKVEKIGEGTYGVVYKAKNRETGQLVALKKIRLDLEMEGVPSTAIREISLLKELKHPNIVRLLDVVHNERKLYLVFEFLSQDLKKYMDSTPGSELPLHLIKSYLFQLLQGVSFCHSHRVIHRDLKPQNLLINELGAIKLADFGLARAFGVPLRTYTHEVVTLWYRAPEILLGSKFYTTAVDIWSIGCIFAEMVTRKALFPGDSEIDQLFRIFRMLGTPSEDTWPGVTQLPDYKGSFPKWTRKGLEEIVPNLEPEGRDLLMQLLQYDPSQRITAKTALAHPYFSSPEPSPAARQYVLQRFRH
CDK3/cyclinE(h), sequence (P24864 whole entry partner): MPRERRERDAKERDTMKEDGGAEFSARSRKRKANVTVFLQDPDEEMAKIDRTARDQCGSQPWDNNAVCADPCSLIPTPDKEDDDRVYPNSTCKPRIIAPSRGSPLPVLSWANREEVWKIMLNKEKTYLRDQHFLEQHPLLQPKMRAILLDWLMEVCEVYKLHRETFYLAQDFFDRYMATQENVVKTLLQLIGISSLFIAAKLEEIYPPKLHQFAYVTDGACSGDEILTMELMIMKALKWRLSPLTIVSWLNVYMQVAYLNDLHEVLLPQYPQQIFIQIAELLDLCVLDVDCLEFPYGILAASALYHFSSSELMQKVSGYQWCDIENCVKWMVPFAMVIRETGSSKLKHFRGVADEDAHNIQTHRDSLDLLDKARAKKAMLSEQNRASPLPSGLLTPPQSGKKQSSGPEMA
IR(h), sequence (P06213 28-1382): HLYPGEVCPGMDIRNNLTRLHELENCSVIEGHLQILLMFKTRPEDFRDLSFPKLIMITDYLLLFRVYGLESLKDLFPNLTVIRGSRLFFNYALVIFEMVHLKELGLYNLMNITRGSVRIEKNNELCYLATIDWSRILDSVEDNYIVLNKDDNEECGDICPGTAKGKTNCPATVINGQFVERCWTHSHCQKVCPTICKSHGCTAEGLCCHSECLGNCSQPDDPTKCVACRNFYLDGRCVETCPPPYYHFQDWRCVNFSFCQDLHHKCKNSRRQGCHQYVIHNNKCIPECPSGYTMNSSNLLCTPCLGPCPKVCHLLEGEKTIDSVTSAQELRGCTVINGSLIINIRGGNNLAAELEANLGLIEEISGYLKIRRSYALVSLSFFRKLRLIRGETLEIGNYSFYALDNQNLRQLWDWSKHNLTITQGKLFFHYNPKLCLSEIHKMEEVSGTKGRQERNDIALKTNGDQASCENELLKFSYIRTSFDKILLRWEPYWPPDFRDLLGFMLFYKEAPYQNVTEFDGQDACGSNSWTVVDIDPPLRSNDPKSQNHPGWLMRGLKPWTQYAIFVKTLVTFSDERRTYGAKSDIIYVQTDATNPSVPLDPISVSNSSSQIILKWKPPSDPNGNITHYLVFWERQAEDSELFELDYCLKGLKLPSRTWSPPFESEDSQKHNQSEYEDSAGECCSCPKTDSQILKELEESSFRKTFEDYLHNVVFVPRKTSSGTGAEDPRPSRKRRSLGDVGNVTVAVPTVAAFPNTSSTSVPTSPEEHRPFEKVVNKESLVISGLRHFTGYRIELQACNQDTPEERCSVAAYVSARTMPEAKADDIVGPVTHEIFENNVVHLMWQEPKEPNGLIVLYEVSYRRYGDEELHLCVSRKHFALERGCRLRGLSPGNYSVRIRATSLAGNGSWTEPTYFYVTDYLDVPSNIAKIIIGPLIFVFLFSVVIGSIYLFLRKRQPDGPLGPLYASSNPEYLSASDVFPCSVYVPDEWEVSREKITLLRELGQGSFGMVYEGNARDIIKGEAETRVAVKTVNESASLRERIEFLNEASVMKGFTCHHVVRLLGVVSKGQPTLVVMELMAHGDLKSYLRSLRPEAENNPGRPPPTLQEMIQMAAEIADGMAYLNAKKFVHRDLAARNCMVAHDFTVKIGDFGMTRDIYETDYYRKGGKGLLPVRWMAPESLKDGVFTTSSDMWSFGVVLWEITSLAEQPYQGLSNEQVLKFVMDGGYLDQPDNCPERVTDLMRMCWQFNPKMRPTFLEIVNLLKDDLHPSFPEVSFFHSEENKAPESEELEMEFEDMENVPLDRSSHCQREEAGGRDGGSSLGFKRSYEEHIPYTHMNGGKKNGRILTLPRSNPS
PKCη(h), sequence (P24723 whole entry): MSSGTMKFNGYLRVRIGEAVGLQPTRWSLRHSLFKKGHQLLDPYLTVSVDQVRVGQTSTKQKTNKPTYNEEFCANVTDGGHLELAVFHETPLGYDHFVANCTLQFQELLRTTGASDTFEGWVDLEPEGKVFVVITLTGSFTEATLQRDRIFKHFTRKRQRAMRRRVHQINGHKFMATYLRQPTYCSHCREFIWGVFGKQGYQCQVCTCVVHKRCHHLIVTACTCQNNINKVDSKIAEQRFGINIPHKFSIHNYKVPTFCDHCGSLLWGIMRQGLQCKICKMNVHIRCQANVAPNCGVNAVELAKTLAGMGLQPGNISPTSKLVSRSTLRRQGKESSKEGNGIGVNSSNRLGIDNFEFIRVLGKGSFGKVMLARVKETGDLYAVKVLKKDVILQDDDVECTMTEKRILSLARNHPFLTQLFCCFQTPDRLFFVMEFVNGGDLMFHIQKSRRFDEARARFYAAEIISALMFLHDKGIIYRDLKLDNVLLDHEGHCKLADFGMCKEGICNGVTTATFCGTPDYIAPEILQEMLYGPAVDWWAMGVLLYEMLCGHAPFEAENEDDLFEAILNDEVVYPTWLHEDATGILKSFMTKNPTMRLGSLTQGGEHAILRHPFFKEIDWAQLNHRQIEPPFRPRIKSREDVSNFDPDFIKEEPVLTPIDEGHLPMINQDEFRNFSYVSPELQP
PKBα(h), sequence (P31749 whole entry): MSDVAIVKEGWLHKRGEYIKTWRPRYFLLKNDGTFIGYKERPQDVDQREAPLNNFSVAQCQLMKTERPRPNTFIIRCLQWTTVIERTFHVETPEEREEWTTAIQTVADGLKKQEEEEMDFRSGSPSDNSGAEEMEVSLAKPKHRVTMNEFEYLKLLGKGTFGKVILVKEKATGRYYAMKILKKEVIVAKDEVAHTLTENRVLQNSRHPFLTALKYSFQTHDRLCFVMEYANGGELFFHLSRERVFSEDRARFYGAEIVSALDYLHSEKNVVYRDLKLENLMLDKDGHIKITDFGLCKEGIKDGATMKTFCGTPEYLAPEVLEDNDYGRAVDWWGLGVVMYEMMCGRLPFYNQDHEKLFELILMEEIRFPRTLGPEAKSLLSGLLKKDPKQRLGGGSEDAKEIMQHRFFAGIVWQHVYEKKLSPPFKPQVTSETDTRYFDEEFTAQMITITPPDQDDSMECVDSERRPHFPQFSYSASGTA

Compound | inhibition at 1 µM [1] [%] | inhibition at 1 µM [2] [%] | inhibition at 1 µM [3] [%] | inhibition at 1 µM [4] [%] | inhibition at 1 µM [5] [%] | inhibition at 1 µM [6] [%] | inhibition at 1 µM [7] [%] | inhibition at 1 µM [8] [%] | inhibition at 1 µM [9] [%] | inhibition at 1 µM [10] [%] | inhibition at 1 µM [11] [%] | inhibition at 1 µM [12] [%] | inhibition at 1 µM [13] [%]
Nc1n[nH]c2ccc(-c3ccnc4[nH]c(-c5ccccc5)cc34)cc12 [Compound 4] | 74 | 8 | -2 | 87 | 50 | -7 | 87 | 98 | 23 | 13 | 94 | 91 | 2
Nc1n[nH]c2ccc(-c3ccnc4[nH]c(-c5cccc(OCc6ccccc6)c5)cc34)cc12 [Compound 5r [SU1261]] | 47 | 10 | -24 | 18 | 4 | -5 | 33 | 86 | -1 | 5 | 45 | 58 | 2
Nc1n[nH]c2ccc(-c3ccnc4[nH]c(-c5ccnc(OCc6ccccc6)c5)cc34)cc12 [Compound 6g [SU1349]] | 12 | 4 | -4 | 10 | -1 | 2 | 3 | 71 | 8 | -8 | 37 | 10 | -1
